Experimental data taken from ChEMBL document CHEMBL1275483, “Staphylococcus aureus cell wall stress stimulon gene-lacZ fusion strains: potential for use in screening for cell wall-active antimicrobials” (2008).
Converted amounts (≈) assume the structure as drawn. Where a SMILES comes first, the peptide text is derived from it. Bridges are numbered along the chain shown (N, C = ends). [ ]: non-standard residue; d: D form. The star is where a group is joined. Ileψ(thiazoline)Cys = CC[C@H](C)[C@H](N)C1=N[C@H](C(=O)*)CS1; dOrn = NCCC[C@@H](N)C(=O)O

Legend:
Assay type in all cases: functional
Staphylococcus aureus [1] = experiment: Induction of Ppbp2::lacZ gene expression in Staphylococcus aureus SH1000 at 13.4 ug/ml after 2 hrs by beta-galactosidase reporter gene assay relative to untreated control
Staphylococcus aureus [2] = experiment: Induction of PvraSr::lacZ gene expression in Staphylococcus aureus SH1000 at 13.4 ug/ml after 2 hrs by beta-galactosidase reporter gene assay relative to untreated control
Staphylococcus aureus [3] = experiment: Induction of PtcaA::lacZ gene expression in Staphylococcus aureus SH1000 at 13.4 ug/ml after 2 hrs by beta-galactosidase reporter gene assay relative to untreated control
Staphylococcus aureus [4] = experiment: Induction of PlytR::lacZ gene expression in Staphylococcus aureus SH1000 at 13.4 ug/ml after 2 hrs by beta-galactosidase reporter gene assay relative to untreated control
Staphylococcus aureus [5] = experiment: Induction of PsgtB::lacZ gene expression in Staphylococcus aureus SH1000 at 13.4 ug/ml after 2 hrs by beta-galactosidase reporter gene assay relative to untreated control
Staphylococcus aureus [6] = experiment: Antimicrobial activity against beta-lactamase producing Staphylococcus aureus SH1000
Staphylococcus aureus [7] = experiment: Induction of Ppbp2::lacZ gene expression in Staphylococcus aureus SH1000 at 3 ug/ml after 2 hrs by beta-galactosidase reporter gene assay relative to untreated control
Staphylococcus aureus [8] = experiment: Induction of PvraSr::lacZ gene expression in Staphylococcus aureus SH1000 at 3 ug/ml after 2 hrs by beta-galactosidase reporter gene assay relative to untreated control
Staphylococcus aureus [9] = experiment: Induction of PtcaA::lacZ gene expression in Staphylococcus aureus SH1000 at 3 ug/ml after 2 hrs by beta-galactosidase reporter gene assay relative to untreated control
Staphylococcus aureus [10] = experiment: Induction of PlytR::lacZ gene expression in Staphylococcus aureus SH1000 at 3 ug/ml after 2 hrs by beta-galactosidase reporter gene assay relative to untreated control
Staphylococcus aureus [11] = experiment: Induction of PsgtB::lacZ gene expression in Staphylococcus aureus SH1000 at 3 ug/ml after 2 hrs by beta-galactosidase reporter gene assay relative to untreated control
Staphylococcus aureus [12] = experiment: Induction of Ppbp2::lacZ gene expression in Staphylococcus aureus SH1000 at 150 ug/ml after 2 hrs by beta-galactosidase reporter gene assay relative to untreated control
Staphylococcus aureus [13] = experiment: Induction of PvraSr::lacZ gene expression in Staphylococcus aureus SH1000 at 150 ug/ml after 2 hrs by beta-galactosidase reporter gene assay relative to untreated control
Staphylococcus aureus [14] = experiment: Induction of PtcaA::lacZ gene expression in Staphylococcus aureus SH1000 at 150 ug/ml after 2 hrs by beta-galactosidase reporter gene assay relative to untreated control
Staphylococcus aureus [15] = experiment: Induction of PlytR::lacZ gene expression in Staphylococcus aureus SH1000 at 150 ug/ml after 2 hrs by beta-galactosidase reporter gene assay relative to untreated control
Staphylococcus aureus [16] = experiment: Induction of PsgtB::lacZ gene expression in Staphylococcus aureus SH1000 at 150 ug/ml after 2 hrs by beta-galactosidase reporter gene assay relative to untreated control
Staphylococcus aureus [17] = experiment: Induction of Ppbp2::lacZ gene expression in Staphylococcus aureus SH1000 at 2.5 ug/ml after 2 hrs by beta-galactosidase reporter gene assay relative to untreated control
Staphylococcus aureus [18] = experiment: Induction of PvraSr::lacZ gene expression in Staphylococcus aureus SH1000 at 2.5 ug/ml after 2 hrs by beta-galactosidase reporter gene assay relative to untreated control
Staphylococcus aureus [19] = experiment: Induction of PtcaA::lacZ gene expression in Staphylococcus aureus SH1000 at 2.5 ug/ml after 2 hrs by beta-galactosidase reporter gene assay relative to untreated control
Staphylococcus aureus [20] = experiment: Induction of PlytR::lacZ gene expression in Staphylococcus aureus SH1000 at 2.5 ug/ml after 2 hrs by beta-galactosidase reporter gene assay relative to untreated control
Staphylococcus aureus [21] = experiment: Induction of PsgtB::lacZ gene expression in Staphylococcus aureus SH1000 at 2.5 ug/ml after 2 hrs by beta-galactosidase reporter gene assay relative to untreated control
Staphylococcus aureus [22] = experiment: Induction of Ppbp2::lacZ gene expression in Staphylococcus aureus SH1000 at 1 ug/ml after 2 hrs by beta-galactosidase reporter gene assay relative to untreated control
Staphylococcus aureus [23] = experiment: Induction of PvraSr::lacZ gene expression in Staphylococcus aureus SH1000 at 1 ug/ml after 2 hrs by beta-galactosidase reporter gene assay relative to untreated control
Staphylococcus aureus [24] = experiment: Induction of PtcaA::lacZ gene expression in Staphylococcus aureus SH1000 at 1 ug/ml after 2 hrs by beta-galactosidase reporter gene assay relative to untreated control
Staphylococcus aureus [25] = experiment: Induction of PlytR::lacZ gene expression in Staphylococcus aureus SH1000 at 1 ug/ml after 2 hrs by beta-galactosidase reporter gene assay relative to untreated control
Staphylococcus aureus [26] = experiment: Induction of PsgtB::lacZ gene expression in Staphylococcus aureus SH1000 at 1 ug/ml after 2 hrs by beta-galactosidase reporter gene assay relative to untreated control

Q: How did the “fold change (FC)” value (Staphylococcus aureus [1]) turn out when `CC[C@H](C)[C@H](N)C1=N[C@H](C(=O)N[C@@H](CC(C)C)C(=O)N[C@H](CCC(=O)O)C(=O)N[C@H](C(=O)N[C@H]2CCCCNC(=O)[C@H](CC(N)=O)NC(=O)[C@@H](CC(=O)O)NC(=O)[C@H](Cc3cnc[nH]3)NC(=O)[C@@H](Cc3ccccc3)NC(=O)[C@H]([C@@H](C)CC)NC(=O)[C@@H](CCCN)NC2=O)[C@@H](C)CC)CS1` [BACITRACIN] ({Ileψ(thiazoline)Cys}-L[dE]IK[dOrn]I[dF]H[dD]N; lactam 4-C) was run?
A: Its value is 3.7.

Q: And the “fold change (FC)” value (Staphylococcus aureus [2])?
A: The value was 1.92.

Q: And the “fold change (FC)” value (Staphylococcus aureus [3])?
A: The value was 3.99.

Q: And the “fold change (FC)” value (Staphylococcus aureus [4])?
A: The value was 1.94.

Q: What about the “fold change (FC)” value (Staphylococcus aureus [5]) of the same compound?
A: The value was 4.63.

Q: And the MIC (Staphylococcus aureus [6])?
A: The MIC was 2 µg/mL (≈ 1.41 µM).

Q: For `O=C(N[C@H](CO)[C@H](O)c1ccc([N+](=O)[O-])cc1)C(Cl)Cl` [CHLORAMPHENICOL], which “fold change (FC)” value (Staphylococcus aureus [7]) is on record?
A: The value was 0.94.

Q: What about the “fold change (FC)” value (Staphylococcus aureus [8]) of the same compound?
A: Its value is 0.88.

Q: And the “fold change (FC)” value (Staphylococcus aureus [9])?
A: Its value is 1.04.

Q: And the “fold change (FC)” value (Staphylococcus aureus [10])?
A: The value was 1.07.

Q: And the “fold change (FC)” value (Staphylococcus aureus [11])?
A: The value was 0.93.

Q: And the MIC (Staphylococcus aureus [6])?
A: The MIC was 0.5 µg/mL (≈ 1.55 µM).

Q: Which results are given for `N[C@@H]1CONC1=O` [CYCLOSERINE]?
A: fold change (FC) (Staphylococcus aureus [12]): 3.41; fold change (FC) (Staphylococcus aureus [13]): 4.08; fold change (FC) (Staphylococcus aureus [14]): 4.6; fold change (FC) (Staphylococcus aureus [15]): 3.13; fold change (FC) (Staphylococcus aureus [16]): 15.63; MIC (Staphylococcus aureus [6]): 1 µg/mL (≈ 9.79 µM)

Q: Which “fold change (FC)” value (Staphylococcus aureus [17]) does the source give for `CC[C@H]1OC(=O)[C@H](C)[C@@H](O[C@H]2C[C@@](C)(OC)[C@@H](O)[C@H](C)O2)[C@H](C)[C@@H](O[C@@H]2O[C@H](C)C[C@H](N(C)C)[C@H]2O)[C@](C)(O)C[C@@H](C)C(=O)[C@H](C)[C@@H](O)[C@]1(C)O` [ERYTHROMYCIN] here?
A: The value was 1.15.

Q: What about the “fold change (FC)” value (Staphylococcus aureus [18]) of the same compound?
A: Its value is 0.8.

Q: And the “fold change (FC)” value (Staphylococcus aureus [19])?
A: Its value is 1.12.

Q: And the “fold change (FC)” value (Staphylococcus aureus [20])?
A: The value was 1.04.

Q: And the “fold change (FC)” value (Staphylococcus aureus [21])?
A: Its value is 0.93.

Q: What about the MIC (Staphylococcus aureus [6]) of the same compound?
A: The MIC was 2 µg/mL (≈ 2.73 µM).

Q: Which “fold change (FC)” value (Staphylococcus aureus [22]) does the source give for `C=C(NC(=O)[C@@H](NC(=O)[C@H](Cc1cnc[nH]1)NC(=O)[C@@H](NC(=O)[C@H](CO)NC(=O)[C@@H]1CS[C@@H](C)[C@H]2NC(=O)C(=C)NC(=O)[C@H](NC(=O)[C@H](CCCCN)NC(=O)[C@H](CCSC)NC(=O)[C@H](CC(N)=O)NC(=O)[C@@H]3CS[C@@H](C)[C@@H](NC(=O)[C@H](CCCNN)NC(=O)[C@@H]4CS[C@@H](C)[C@@H](NC(=O)[C@@H]5CSC[C@@H](NC(=O)/C(=C\C)NC(=O)[C@@H](N)[C@@H](C)CC)C(=O)N[C@@H]([C@@H](C)CC)C(=O)NC(=C)C(=O)N[C@@H]([C@@H](C)CC)C(=O)N5)C(=O)N5CCC[C@H]5C(=O)NCC(=O)N4)C(=O)NCC(=O)N[C@@H](C)C(=O)N[C@@H]([C@@H](C)CC)C(=O)N[C@@H](CCSC)C(=O)NCC(=O)N3)[C@H](C)SC[C@H](NC2=O)C(=O)N[C@H](Cc2cnc[nH]2)C(=O)N1)[C@@H](C)CC)C(C)C)C(=O)N[C@@H](CCCCN)C(=O)O` [NISIN] here?
A: Its value is 1.02.

Q: What about the “fold change (FC)” value (Staphylococcus aureus [23]) of the same compound?
A: Its value is 0.57.

Q: And the “fold change (FC)” value (Staphylococcus aureus [24])?
A: The value was 0.97.

Q: And the “fold change (FC)” value (Staphylococcus aureus [25])?
A: Its value is 1.21.

Q: And the “fold change (FC)” value (Staphylococcus aureus [26])?
A: Its value is 1.02.
